Results published in patent US20090131354A1, “miR-126 REGULATED GENES AND PATHWAYS AS TARGETS FOR THERAPEUTIC INTERVENTION” (priority 2007, published 2009).

Key:
Format in all cases: cell-based, human
[1] = tested on: A549 lung cancer cells; test: Alamar Blue proliferation assay, A549
Source text: (§1) The inventors assessed the therapeutic effect of hsa-miR-126 for lung cancer by using 11 individual lung cancer cell lines. To measure cellular proliferation of lung cancer cells, the following non-small cell lung cancer (NSCLC) cells were used: cells derived from lung adenocarcinoma (A549, H1299, H522, H838, Calu-3, HCC827, HCC2935), cells derived from lung squamous cell carcinoma (H520, H226), cells derived from lung bronchioalveolar carcinoma (H1650), and cells derived from lung large cell carcinoma (H460). Synthetic hsa-miR-126 (Pre-miR™-hsa-miR-126, Ambion cat. no. AM17100) or negative control (NC) miRNA (Pre-miR™ microRNA Precursor Molecule-Negative Control #2; Ambion cat. no. AM17111) was delivered via lipid-based transfection into A549, H1299, H522, H838, Calu-3, HCC827, HCC2935, H520, H1650, and H460 cells, and via electroporation into H226 cells.
(§2) Lipid-based reverse transfections were carried out in triplicate according to a published protocol (Ovcharenko et al., 2005) and the following parameters: Cells (5,000-12,000 per 96 well), 0.1-0.2 μl Lipofectamine™ 2000 (cat. no. 11668-019, Invitrogen Corp., Carlsbad, Calif., USA) in 20 μl OptiMEM (Invitrogen), 30 nM final concentration of miRNA in 100 μl. Electroporation of H226 cells was carried out using the BioRad Gene Pulser Xcell™ instrument (BioRad Laboratories Inc., Hercules, Calif., USA) with the following settings: 5×10^6 cells with 5 μg miRNA in 200 μl OptiMEM (1.6 μM miRNA), square wave pulse at 250 V for 5 ms. Electroporated H226 cells were seeded at 7,000 cells per 96-well in a total volume of 100 μl. All cells except for Calu-3 cells were harvested 72 hours post transfection or electroporation for assessment of cellular proliferation. Calu-3 cells were harvested 10 days post transfection. Proliferation assays were performed using Alamar Blue (Invitrogen) following the manufacturer's instructions. As a control for inhibition of cellular proliferation, siRNA against the motor protein kinesin 11, also known as Eg5, was used. […]

[2] = tested on: H1650 lung cancer cells; test: Alamar Blue proliferation assay, H1650
Source text: as §1, §2

[3] = tested on: Calu-3 lung cancer cells; test: Alamar Blue proliferation assay, Calu-3
Source text: as §1
Electroporation of H226 cells was carried out using the BioRad Gene Pulser Xcell™ instrument (BioRad Laboratories Inc., Hercules, Calif., USA) with the following settings: 5×10^6 cells with 5 μg miRNA in 200 μl OptiMEM (1.6 μM miRNA), square wave pulse at 250 V for 5 ms. Electroporated H226 cells were seeded at 7,000 cells per 96-well in a total volume of 100 μl. All cells except for Calu-3 cells were harvested 72 hours post transfection or electroporation for assessment of cellular proliferation. Calu-3 cells were harvested 10 days post transfection. Proliferation assays were performed using Alamar Blue (Invitrogen) following the manufacturer's instructions. As a control for inhibition of cellular proliferation, siRNA against the motor protein kinesin 11, also known as Eg5, was used. Eg5 is essential for cellular survival of most eukaryotic cells and a lack thereof leads to reduced cell proliferation and cell death (Weil et al., 2002). siEg5 was used in lipid-based transfection following the same experimental parameters that apply to miRNA. The inventors also used a DNA topoisomerase II inhibitor, etoposide, at a final concentration of 10 μM and 50 μM as an internal standard for the potency of miRNAs. […]

[4] = tested on: H226 lung cancer cells; test: Alamar Blue proliferation assay, H226
Source text: as §1
as §2, with “Electroporation of H226 cells was carried out using the BioRad Gene Pulser Xcell™ instrument (BioRad Laboratories Inc., Hercules, Calif., USA) with the following settings: 5×10^6 cells with 5 μg miRNA in 200 μl OptiMEM (1.6 μM miRNA), square wave pulse at 250 V for 5 ms.” left out, “used. Eg5 is essential for cellular survival of most eukaryotic cells and a lack thereof leads to reduced cell proliferation and cell death (Weil et al., 2002). siEg5 was used in lipid-based transfection following the same experimental parameters that apply to miRNA.” for “used.”

[5] = tested on: H1299 lung cancer cells; test: Alamar Blue proliferation assay, H1299; details: relative to NC miRNA (100%)
Source text: as §1, §2

| Molecule | % proliferation ([1]; A549, 50 μM, relative to NC miRNA (100%)) [%] | % proliferation ([1]; A549, relative to NC miRNA (100%)) [%] | % proliferation ([2]; H1650, 10 μM, relative to NC miRNA (100%)) [%] | % proliferation ([2]; H1650, relative to NC miRNA (100%)) [%] | % proliferation ([3]; Calu-3, 10 μM, relative to NC miRNA (100%)) [%] | % proliferation ([3]; Calu-3, relative to NC miRNA (100%)) [%] | % proliferation ([4]; H226, 50 μM, relative to NC miRNA (100%)) [%] | % proliferation ([4]; H226, relative to NC miRNA (100%)) [%] | % proliferation ([5]; H1299, 10 μM) [%] | % proliferation ([5]; H1299, 50 μM) [%] | % proliferation ([1]; A549, 30 nM, 72 h, relative to NC miRNA (100%)) [%] | % proliferation ([2]; H1650, 30 nM, 72 h, relative to NC miRNA (100%)) [%] | % proliferation ([3]; Calu-3, 30 nM, 10 days, relative to NC miRNA (100%)) [%] | % proliferation ([4]; H226, 30 nM, electroporation, 72 h, relative to NC miRNA (100%)) [%] | % proliferation ([5]; H1299, 30 nM, 72 h) [%] |
| --- | --- | --- | --- | --- | --- | --- | --- | --- | --- | --- | --- | --- | --- | --- | --- |
| COc1cc([C@@H]2c3cc4c(cc3[C@@H](O[C@@H]3O[C@@H]5CO[C@@H](C)O[C@H]5[C@H](O)[C@H]3O)[C@H]3COC(=O)[C@H]23)OCO4)cc(OC)c1O [etoposide] | 42.18 | 49.13 | 90.98 | 60.31 | 20.81 | 13.53 | 9.33 | 28.17 | 79.65 | 54.38 | – | – | – | – | – |
| hsa-miR-126 (UCGUACCGUGAGUAAUAAUGC; synthetic pre-miR form, further chemistry not given here) [Synthetic hsa-miR-126 (Pre-miR™-hsa-miR-126, Ambion cat. no. AM17100)] | – | – | – | – | – | – | – | – | – | – | 84.30 | 80.67 | 65.05 | 92.09 | 89.37 |
